Source: US20180200233A1, “COMPOSITIONS FOR PREVENTING CANCERS ASSOCIATED WITH HUMAN PAPILLOMA VIRUSES” (Loma Linda University, priority 2015, published 2018)

Assays:
[1] = test system: p53 level in C33A cells; assay: p53 ELISA in C33A cells; type: cell-based, human; conditions: 200 μM myricetin, 100 μM spinacine; with mitomycin C, 24 h
Method: FIGS. 6A-B is an immunoblot and FIG. 6B is a graph showing that treatment with myricetin and spinacine (5) increased cellular levels of caspase 8 and p53. (FIG. 6A) SiHa cells (1×10^6 per well) were seeded into a 6-well plate and allowed to incubate overnight. The indicated concentrations of myricetin and spinacine were added, then cells were incubated for 24 h. Cells were then washed in 1×PBS, then harvested and the resulting level of caspase 8 was measured by immunoblot. (FIG. 6B) SiHa and C33A cells (1×10^6 per well) were seeded into a 6-well plate and allowed to incubate overnight. 200 μM of myricetin and 100 μM spinacine were added together with 4 μg/ml mitomycin C and incubated for 24 h. The resulting level of p53 was measured by ELISA, and the level of p53 found in untreated cells was set at 100%. Experiments were performed in triplicate, and error bars indicate the standard deviation.
If this ability is due to inhibition of E6 functions, then an increase in the levels of caspase 8 and p53 should be observable in SiHa cells following treatment with myricetin and spinacine. To test this prediction, SiHa cells were treated with 50, 100, and 200 μM of myricetin or spinacine for 24 hr, and then measured the level of caspase 8 by immunoblot. […] To ask how p53 levels were affected, an ELISA assay was employed. […]

[2] = test system: UPCI-SCC90-UP-Clone 35 (#90) cells; assay: MTT cell viability, HPV+ HNSCC cell line #90 with TRAIL; type: cell-based; conditions: HPV+ #90 cells, 50 ng/ml TRAIL
Method: FIGS. 7A-E are graphs showing myricetin and spinacine (5) re-sensitized HPV^+, but not HPV^−, head and neck cancer cell lines to treatment with TRAIL. (FIG. 7A) Both HPV^− and HPV^+ HN cancer cell lines display resistance to TRAIL treatment. HPV^− (#84) (Myricetin—FIG. 7B; Spinacine—FIG. 7C) and HPV^+ (#90) (FIG. 7D; Spinacine—FIG. 7E) head and neck cancer cell lines (2×10^4 cells per well) were seeded into 96-well plates and allowed to incubate overnight, then cells were pre-treated with myricetin (0-200 μM) or spinacine (0-100 μM) for 4 h. […] of TRAIL, along with cycloheximide (5 μg/ml) was added and cells were allowed to incubate overnight. Cell viability was measured by the MTT assay, and the viability of cells untreated with small molecules was set at 100%. Experiments were performed in triplicate, and error bars indicate the standard deviation.
As shown above, myricetin and spinacine sensitize SiHa cells to TRAIL and chemotherapy drugs. […] Other types of HPV^+ cancer cells were examined, and in particular, head and neck squamous cell carcinoma (HNSCC) cells can also be sensitized in this manner. […] For the combination experiments, 50 ng/ml TRAIL was applied in combination with either myricetin (0-200 μM) or spinacine (0-100 μM). […] In contrast […], TRAIL-induced cell death was enhanced 30% in UPCI-SCC90-UP-Clone 35, #90. Furthermore, 40 μM spinacine was able to enhance TRAIL-induced cell death in the HPV^+ #90 cell lines up to 50%.
The extracellular domain of human TRAIL was cloned into a pTriEx expression plasmid containing N-terminal Hisx6 tag. His-TRAIL was expressed in the E. coli BL-21 pLys strain and purified as previously described. Doxorubicin and cisplatin were purchased from Sigma. His-TRAIL, doxorubicin, and cisplatin were diluted in PBS to the desired concentration before using. […] All experiments were repeated at least three times (three biological replicates, carried out on different days), with each experimental group measured in triplicate within each of these individual experiments. […]

| SMILES | change in p53 levels in C33A cells (in words) [1] | enhancement of TRAIL-induced cell death ([2]; 40 μM spinacine) | enhancement of TRAIL-induced cell death ([2]; myricetin 0-200 μM) [%] |
| --- | --- | --- | --- |
| O=C(O)C1Cc2[nH]cnc2CN1 (stereo not shown) [Compound 5, 4,5,6,7-Tetrahydro-1H-imidazo(4,5-c)pyridine-6-carboxylic acid] | no significant change | up to 50% |  |
| O=c1c(O)c(-c2cc(O)c(O)c(O)c2)oc2cc(O)cc(O)c12 [Myricetin, reference compound] | no significant change |  | 30 |
